Results taken from PubChem BioAssay AID1645864 (Buhrlage Lab, Dana-Farber Cancer Institute and Novartis …, 2021).
pIC50: −log10 of the molar value. Calls of active or inactive are those of the source.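 The calls were made as follows: active = maximal inhibition of USP17 at or above 30% in the confirmation dose-response, a value not among the printed readouts; inactive = the rest.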

biological target: Ubiquitin carboxyl-terminal hydrolase 17-like protein 5 (Homo sapiens) (UniProt A8MUK1); assay: ubiquitin-specific protease 17 DUB inhibitors, concentration-effect assay, cell-free, verification of initial screening actives (AID 1645864); conditions: purified USP17, ubiquitin-rhodamine cleavage fluorescence, 3 h
Sequence (A8MUK1 whole entry, looked up): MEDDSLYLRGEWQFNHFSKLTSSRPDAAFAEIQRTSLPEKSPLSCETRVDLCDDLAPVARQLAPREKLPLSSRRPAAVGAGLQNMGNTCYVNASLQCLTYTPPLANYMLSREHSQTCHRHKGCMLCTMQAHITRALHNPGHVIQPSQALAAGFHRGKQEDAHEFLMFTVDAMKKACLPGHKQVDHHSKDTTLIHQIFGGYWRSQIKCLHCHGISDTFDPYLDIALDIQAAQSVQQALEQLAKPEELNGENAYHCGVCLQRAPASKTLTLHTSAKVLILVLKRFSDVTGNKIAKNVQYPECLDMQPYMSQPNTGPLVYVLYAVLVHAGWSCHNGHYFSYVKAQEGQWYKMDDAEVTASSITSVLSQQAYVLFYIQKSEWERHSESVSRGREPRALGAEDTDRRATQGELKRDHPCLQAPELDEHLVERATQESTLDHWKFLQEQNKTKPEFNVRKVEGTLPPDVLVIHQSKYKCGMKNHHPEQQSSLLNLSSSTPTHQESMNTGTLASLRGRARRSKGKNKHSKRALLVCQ

| SMILES | pIC50 | IC50 |
| --- | --- | --- |
| O=c1[nH]c2ccc(S(=O)(=O)Nc3ccc(O)c4ccccc34)cc2[nH]1 | 5.39 |  |
| COc1cccc(/C=C/C(=O)Nc2ccc(C)c(Cl)c2)c1 | 4.36 |  |
| COCCNC(=O)c1ccn(-c2ccc3ccc(-c4cnn(C)c4)cn23)n1 |  | > 50 µM (inactive) |
| COc1cc(O)c2c(O)c3c(cc2c1)CC(C)OC3=O (configuration not stated) | 5.20 |  |
| CC(C)NC(=O)Cn1ccn2nc(-c3ccc(Cl)cc3)cc2c1=O | 5.41 |  |
| Cc1sc(NC(=O)CNc2ccccc2)nc1-c1ccc2c(c1)CCN2C(=O)C(C)C |  | > 50 µM (inactive) |
| O=C(CC(C(=O)Nc1ccc2c(c1)OCO2)C(=O)c1ccccc1)Nc1ccc(Cl)cc1F (configuration not stated) | 4.94 |  |
| O=C(/C=C/c1ccc(F)cc1)N1CCC(Cc2ccccc2)CC1 | 4.38 |  |
| COc1cc(NC(=O)c2cc(-c3ccncc3)n(-c3ccc(F)cc3)n2)cc(OC)c1 |  | > 50 µM (inactive) |
| Fc1cccc(Cn2cc(-c3noc(-c4ccncc4)n3)nn2)c1 | 4.54 |  |
| Cc1cc(=O)n(C)c2c(O)c3c(cc12)c(C)cc(=O)n3C | 6.81 |  |
| COc1ccc(C(=O)Nc2ccc3c(c2)C(=O)N(C)c2ccccc2O3)cc1 |  | > 50 µM (inactive) |
| C/C=C(\Cl)C1=CC(=O)[C@]23C[C@H]2[C@@]2(C)CO[C@@]1(O)[C@@]3(O)O2 | 4.55 |  |
| CCc1nc2c(NC(=O)Nc3cccc(C(=O)OC)c3)cccn2n1 |  | > 50 µM (inactive) |
| N#Cc1ccc(Cc2ncc(C(F)(F)F)cc2Cl)s1 |  | > 50 µM (inactive) |
| Cc1ccc(Cl)cc1NC(=O)COC(=O)c1ccc2ccccc2n1 |  | > 50 µM (inactive) |
| O=C(Cn1c(CSc2ccccc2)nc2ccccc21)Nc1ccccc1F | 4.40 |  |
| COc1cc(Cn2cnc3c([nH]c4ccc(Br)cc43)c2=O)cc(OC)c1 | 5.43 |  |
| Cc1cc(C#N)c2c(C)ccc(C(C)C)cc1-2 |  | > 50 µM (inactive) |
| Cc1ccc(C)c(Cn2nnc3c(=O)[nH]c(C4CCN(S(=O)(=O)c5ccc(S(=O)(=O)NC6CC6)cc5)CC4)nc32)c1 | 4.61 |  |
| Cc1cc(C(=O)N2CCOCC2)c(C)n1-c1ccc(O)cc1 | 4.62 |  |
| C=C1CCC2[C@](C)(CCC[C@]2(C)C(=O)OC)[C@H]1CCc1ccoc1C[N+](C)(C)Cc1ccccc1 (some centres not stated) |  | > 50 µM (inactive) |
| Cn1c(=O)c(C(=O)CN2CCN(c3ccc(O)cc3)CC2)c(N)n(Cc2ccccc2)c1=O | 4.40 |  |
| CC1CCN(C(=O)c2cn(-c3cc(N4CCC(C)CC4)ncn3)cn2)CC1 |  | > 50 µM (inactive) |

| SMILES | pIC50 | IC50 |
| --- | --- | --- |
| Cc1c(C(=O)NCc2cccc(Br)c2)oc2c1-c1[nH]ncc1CC2 | 4.54 |  |
| COc1cccc(NC(=O)C2Cn3ccnc3C3(CCN(C(C)=O)CC3)O2)c1 (configuration not stated) |  | > 50 µM (inactive) |
| CS(=O)(=O)n1nc(NCc2ccc(F)cc2)nc1NCc1ccc(F)cc1 |  | > 50 µM (inactive) |
| O=C(CN1C(=O)C2CCCC2=Nc2ccccc21)Nc1cc(F)ccc1F (configuration not stated) | 4.86 |  |
| CCOC(=O)c1ccc(NC(=O)c2cnc(N3CCOCC3)nc2)cc1 |  | > 5 µM (inactive) |
| CC(C)CCN1C(=O)C2C(C(=O)Nc3ccc(Oc4ccccc4)cc3)C3C=CC2(O3)C1C(=O)NC1CCCCC1 (configuration not stated) | 4.47 |  |
| CCCCNC(=O)C1Sc2nnc(-c3ccccc3)n2NC1c1ccccc1 (configuration not stated) | 4.63 |  |
| O=C(NC(Cc1ccccc1)c1nc2ccccc2[nH]1)C1CC1 (configuration not stated) | 4.30 |  |
| CC(=O)c1ccc(NC(=O)CC2C(=O)Nc3nc4ccccc4n32)cc1 (configuration not stated) | 4.49 |  |
| CC(C)=CCCC1(C)OC2=C(C(=O)c3cc(O)cc(O)c3C2=O)[C@H]2C=C(C)CC[C@H]21 (some centres not stated) | 5.01 |  |
| c1ccc2c(c1)CCc1c-2nc2ccccc2c1N1CCOCC1 |  | > 50 µM (inactive) |
| Cc1cc(SCc2ncon2)c(C)cc1Cl |  | > 50 µM (inactive) |
| Nc1c(C(=O)NCCc2ccccc2)nnn1-c1ccc(F)cc1 | 4.40 |  |
| O=S(=O)(c1cccc(F)c1)N1CCc2nc3ccccc3n2CC1 | 5.51 |  |
| COc1cc(NC(=O)Cn2c(=O)n(-c3ccc(CC(=O)NC4CCCC4)cc3)c(=O)c3ccccc32)cc(OC)c1 |  | > 5 µM (inactive) |
| Cc1ccc(C)c(-n2c(C)cc(/C=C3/C(=N)N4C(c5ccc(F)cc5)=CSC4=NC3=O)c2C)c1 |  | > 50 µM (inactive) |
| COc1ccc(NC(=O)c2nnc(C(=O)NCCN3CCCCCC3)s2)cc1 | 5.52 |  |
| O=C(/C=C/c1ccc2c(c1)OCO2)Nc1nc2c(s1)COCC2 | 4.76 |  |
| O=C(Nc1cccc(OC(=O)c2ccc(Cl)cc2)c1)c1ccc(Cl)cc1 | 4.78 |  |
| CCn1cc(NC(=O)CN2CCC3(CC=CCOC3)CC2)c(C)n1 |  | > 50 µM (inactive) |
| CCN(C(=O)c1cc2c(s1)-c1ccccc1OC2)c1ccccc1F |  | > 50 µM (inactive) |
| Cc1ccccc1C(=O)c1ccc(C(=O)NC2CCCCCC2)[nH]1 | 5.53 |  |
| Clc1cc2nc(N3CCN(c4ccccn4)CC3)c3nncn3c2cc1Cl | 5.66 |  |
| COc1ccccc1OCC(=O)Nc1ccc2c(c1)CCC(=O)N2Cc1ccccc1 |  | > 50 µM (inactive) |

| SMILES | pIC50 | IC50 |
| --- | --- | --- |
| Cc1nnc(NC(=O)C2CCN(c3ccc(S(N)(=O)=O)cc3[N+](=O)[O-])CC2)o1 | 4.53 |  |
| O=C(NCc1ccco1)c1ccc2c(c1)N(Cc1cccc(F)c1)C(=O)c1ccccc1S2 |  | > 50 µM (inactive) |
| O=C(COc1nsnc1N1CCOCC1)Nc1ccccc1F |  | > 50 µM (inactive) |
| COc1ccc(CCC(=O)Nc2ccc3c(c2)Sc2ncccc2C(=O)N3C)cc1 |  | > 50 µM (inactive) |
| CC(C)Cc1nc2sc3c(NCCN4CCOCC4)ncnc3c2c2c1CCC2 |  | > 50 µM (inactive) |
| Cc1cc(C)c2sc(N(CCCn3ccnc3)C(=O)Cc3ccccc3)nc2c1 | 4.66 |  |
| Cc1cc(/C=C2/C(=N)N3C(c4ccccc4)=CSC3=NC2=O)c(C)n1-c1ccc2ccccc2c1 |  | > 50 µM (inactive) |
| Cc1nn(-c2ccc([N+](=O)[O-])cc2)c(C)c1-c1nc2ccccc2[nH]1 | 4.48 |  |
| Cc1cccc(NC(=O)c2ccn(COc3ccc(F)cc3F)n2)c1C |  | > 50 µM (inactive) |
| CCCCN1CC(C(=O)Nc2ccc(C(=O)Nc3ccc(Cl)cc3)cc2)CC1=O (configuration not stated) | 4.78 |  |
| Cc1cccc(NC(=O)Cn2c(-c3cnccn3)nc(C)c(C)c2=O)c1C |  | > 50 µM (inactive) |
| Cn1ccc2c(cc(C(=O)NCCC3=CCCCC3)n2C)c1=O |  | > 50 µM (inactive) |
| CCOc1ccc(NC(=O)Cn2c(=O)n(CC(=O)NCc3ccc(C)cc3)c(=O)c3sccc32)cc1 | 5.40 |  |
| Cc1cc(=O)n(CC(=O)Nc2ccccc2F)c(Nc2ccc(F)cc2)n1 | 4.89 |  |
| COc1ccc(CC(NC(C)=O)C(=O)NC2CCN(c3c(Cc4ccccc4)c(C)nc4ncnn34)CC2)cc1OC (configuration not stated) |  | > 50 µM (inactive) |
| Oc1ccc(-c2nc3ccc(Cl)cn3c2NC2CCCCC2)cc1 | 4.82 |  |
| O=C(CSc1nnc(CNC(=O)c2ccccc2F)o1)Nc1ccc(OC(F)(F)F)cc1 | 4.48 |  |
| O=C(NCc1nc2ccccc2[nH]1)c1cccc(S(=O)(=O)N2CCc3ccccc32)c1 |  | > 50 µM (inactive) |
| O=C(CSc1nc2cc(S(=O)(=O)Nc3ccccc3Cl)ccc2o1)Nc1ccc(N2CCOCC2)cc1 | 4.32 |  |
| COc1ccc(NC(=O)C2CCCN(S(=O)(=O)N3CCCCCC3)C2)cc1 (configuration not stated) | 4.53 |  |
| COc1ccc(Cl)c(NC(=O)C2CC(=O)Nc3cc(-c4ccccc4)nn32)c1 (configuration not stated) | 4.63 |  |
| O=C1c2ccccc2NC2(C(=O)Nc3ccc(Br)cc32)N1c1ccccc1 (configuration not stated) |  | > 50 µM (inactive) |
| Cc1ccc(NC(=O)c2cnc3c(c2)c(=O)n(C)c(=O)n3C)cc1 | 5.60 |  |
| Cc1ccc(C(C)C)cc1OCCOCCN1CCNCC1 |  | > 50 µM (inactive) |
